{"source": "patent US20140271605A1", "about": "“STABLE BIOACTIVE SUBSTANCES AND METHODS OF MAKING” (ADVANCED BIONUTRITION CORP., priority 2013, published 2014)", "experiment": "Stability testing of the herbicides mixture suspension", "type": "physicochemical", "settings": "40° C. for 30 days", "method": "Stability testing of the herbicides mixture suspension: The commercial solutions containing Glyphosate or Round-Up are mixed together, and tested along with the stable Round-Up and Glyphosate mixed suspensions of the present invention. The liquids placed in an oven at 40° C. for 30 days. The remaining activities of the herbicides in the samples are measured following standard protocols.", "data": [{"smiles": "O=C(O)CNCP(=O)(O)O", "note": "[Glyphosate]", "values": [{"measurement": "remaining activity of the herbicide, free commercial solutions mixed together", "result": "No Glyphosate activity is detected"}]}]}
